# From US10828279B2, “Prophylactic and/or therapeutic drug for diabetic nephropathy” (HuBit genomix, Inc., priority 2018, dated 2020)
# Tests used:
# [1] = system: TGF-β1; test: RT-quantitative PCR of TGF-β1 mRNA expression in AGE-stimulated cultured mouse mesangial cells; format: cell-based; conditions: for TGF-β1 (%): relative value, AGE 300 μg/ml+Palovarotene 0.5 μM = 100%
# Description: (§1) The glomeruli were isolated from four-week-old wild-type C57BL/6J mice according to the method of Davies M. et al. (Kidney Int. 1994; 45(2):320-7)^36 with necessary modifications and primary culture of the glomeruli was conducted in order to establish mouse mesangial cell strains. AGEs used for cell stimulation were prepared according to the method of Doi T. et al. (Proc, Natl. Acad. Sci. U.S.A. 1992; 89:2873-2877)^37 with necessary modifications. The cultured mouse mesangial cells were grown to confluence, subjected to serum starvation using Opti-MEM (Invitrogen). Then, the cells were treated with (1) no stimulation, (2) AGE 300 μg/ml; (3) AGE 300 μg/ml+palovarotene 0.5 μM; or (4) AGE 300 μg/ml+palovarotene 1 μM. Twenty-four hours after the treatment, RNA extraction was performed by AGPC method. RT-quantitative PCR was performed with the resultant RNA, followed by evaluation of mRNA expression levels by the comparative Ct method (ΔΔ Ct method).
# [2] = system: UUO mice; test: Unilateral ureter obstruction (UUO) mouse renal tubulointerstitial fibrosis model, Sirius Red staining; format: in vivo; conditions: UUO+Palo vs UUO; palovarotene 1 mg/kg i.p. for 6 days, day 7 after ureter ligation
# Description: Unilateral ureter obstruction (UUO) model is a model in which renal interstitial fibrosis is induced by feeding for seven days under ureter ligation. Briefly, the kidney of a mouse is exposed extraperitoneally by a unilateral dorsal incision. Then, ureter ligation is performed at 2 to 3 spots at intervals of 1 mm with surgical suture, which leads to decreased renal blood flow and glomerular filtration rate. Further, macrophages infiltrate into the tubulointerstitium, apoptosis of tubular epithelial cells occurs, and increase of fibroblasts and extracellular matrix protein progresses in the interstitium, which leads to interstitial fibrosis. In this model, fibrosis is evoked in a short period of time and there is no complication of uremia since no toxic substance is used. Thus, this is an interstitial fibrosis model with high reproducibility. A UUO model was established using 10-12 week-old ICR mice (purchased from CLEA Japan). […] UUO group consists of mice which were kept for 7 days under ureter ligation to thereby induce renal interstitial fibrosis. Palovarotene group consists of mice which received intraperitoneal administration of palovarotene (1 mg/kg) for 6 consecutive days starting from one day after UUO treatment. Mice in each group were dissected 7 days after UUO treatment, followed by histological evaluation of the kidney by Sirius Red staining.
# [3] = system: Col4α1 (type IV collagen); test: RT-quantitative PCR of Col4α1 (type IV collagen) mRNA expression in AGE-stimulated cultured mouse mesangial cells; format: cell-based; conditions: for Col4α1 (%): relative value, AGE 300 μg/ml+Palovarotene 0.5 μM = 100%
# Description: as §1
# [4] = system: BMP4; test: RT-quantitative PCR of BMP4 mRNA expression in AGE-stimulated cultured mouse mesangial cells; format: cell-based; conditions: for BMP4 (%): relative value, AGE 300 μg/ml+Palovarotene 0.5 μM = 100%
# Description: as §1
# [5] = system: streptozocin-induced diabetic mice; test: Histological evaluation of the kidney in STZ-induced diabetic mice on high fat diet; format: in vivo, mouse; conditions: DM+Palo vs DM; palovarotene 60 μg/kg i.p. twice a week, 12 weeks
# Description: Streptozocin (Wako) was administered to 12-15 week-old ICR mice (purchased from CLEA Japan) intraperitoneally (I.P.) for five consecutive days at 50 mg/kg per injection to thereby evoke diabetes. Four weeks after the STZ administration, mouse diet was changed to a high fat diet HFD60 (Oriental Yeast) and, at the same time, intraperitoneal administration of palovarotene at 60 μg/kg twice a week was started. Twelve weeks later, the mice were dissected, followed by histological evaluation.
# [6] = AGE 300 μg/ml + compound 0.5 μM, 24 h
# [7] = AGE 300 μg/ml + compound 1.0 μM, 24 h
# [8] = Example 4, 0.5 and 1.0 μM, AGE 300 μg/ml, comparison with palovarotene
compound,measurement,setting,value
"CC1(C)CCC(C)(C)c2cc(Cn3cccn3)c(/C=C/c3ccc(C(=O)O)cc3)cc21 [Palovarotene, 4-[(E)-2-[5,5,8,8-tetramethyl-3-(pyrazol-1-ylmethyl)-6,7-dihydronaphthalen-2-yl]ethenyl]benzoic acid]",TGF-β1 (%),[1]; [6],100%
same,TGF-β1 (%),[1]; [7],70%
same,TGF-β expression increased by AGE stimulation,"[1]; AGE 300 μg/ml + palovarotene 0.5 or 1 μM, 24 h, FIG. 2A",strongly inhibited
same,inhibitory effect on TGF-01 expression (in words),[1]; [8],dose-dependent inhibitory effect
same,degree of staining of the tubulointerstitium with Sirius Red,[2],clearly lower than that in the kidney tissue of UUO mice
same,tubulointerstitial fibrosis,[2],markedly inhibits
same,Col4α1 (%),[3]; [6],100%
same,Col4α1 (%),[3]; [7],50%
same,inhibitory effect on Col4α1 (type IV collagen) expression (in words),[3]; [8],dose-dependent inhibitory effect
same,production of Col4α1 (type IV collagen) increased by AGE stimulation,"[3]; palovarotene 0.5 μM, AGE 300 μg/ml, 24 h, FIG. 2C",completely inhibited
same,BMP4 (%),[4]; [6],100%
same,BMP4 (%),[4]; [7],60%
same,BMP4 expression increased by AGE stimulation,"[4]; AGE 300 μg/ml + palovarotene 0.5 or 1 μM, 24 h, FIG. 2B",clearly inhibited by palovarotene in a dose dependent manner
same,inhibitory effect on BMP4 expression (in words),[4]; [8],dose-dependent inhibitory effect
same,inhibition of BMP4 expression increased by AGE stimulation,"[4]; palovarotene 1 μM, AGE 300 μg/ml, 24 h, FIG. 2B",almost complete
same,Smad1 activation (pSmad1),[5],inhibition of Smd1 activation
same,WT1 expressed in the podocyte nuclei (WT1),[5],inhibition of reduction of WT1
same,expansion of the glomerular mesangial area (PAS staining),[5],inhibition of expansion of the glomerular mesangial area
same,nephrin-expressing area in glomerular podocytes (Nephrin),[5],inhibition of reduction of nephrin-expressing area
same,phosphorylation of Smad2/3,[5],strongly inhibited
same,type IV collagen expression (Col4),[5],reduction of type IV collagen expression
